In US10077237B2 (Sanofi, priority 2013, dated 2018):
“And” between values parts separate entries of the source, which are not always exact repeats. Equal values may be shown once. Where a name gives a salt, the structure may show the parent alone.

Target: T1, recombinant human AMPK complex, containing α2β1γ2 (Homo sapiens, UniProt P54646+Q9Y478)
T1 construct: hsAMPKα2-552-His, hsAMPKβ1-2-270 and hsAMPKγ-2-569 respectively; hsAMPKβ1-2-270; hsAMPKγ-2-569; His (C); made in house; host or cells: Spodoptera frugiperda Sf21 (baculovirus)
Assay: AMPK in vitro activation assay (HTRF)
Assay type: biochemical
Settings: for EC50: HTRF, recombinant human α2β1γ2 AMPK, 200 μM ATP, biotinylated ACC-CREBp peptide, repeat determinations on separate lines; for Emax: potentiation of AMPK activity as percent over the basal signal (without compound)
In short: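 HTRF phosphorylation read-out (Eu-cryptate anti-pS133-CREB, streptavidin-XL665) after a 45 min, 37° C kinase step. This step was initiated by a solution with 200 μM ATP and 2 or 0.08 μM biotinylated ACC-CREBp peptide. Beforehand, compound sat 30 min at room temperature with baculovirus/Sf21 α2β1γ2 in pH 7.0 HEPES buffer; EC50 derived from activation over basal.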

T1 sequence (P54646 2-552): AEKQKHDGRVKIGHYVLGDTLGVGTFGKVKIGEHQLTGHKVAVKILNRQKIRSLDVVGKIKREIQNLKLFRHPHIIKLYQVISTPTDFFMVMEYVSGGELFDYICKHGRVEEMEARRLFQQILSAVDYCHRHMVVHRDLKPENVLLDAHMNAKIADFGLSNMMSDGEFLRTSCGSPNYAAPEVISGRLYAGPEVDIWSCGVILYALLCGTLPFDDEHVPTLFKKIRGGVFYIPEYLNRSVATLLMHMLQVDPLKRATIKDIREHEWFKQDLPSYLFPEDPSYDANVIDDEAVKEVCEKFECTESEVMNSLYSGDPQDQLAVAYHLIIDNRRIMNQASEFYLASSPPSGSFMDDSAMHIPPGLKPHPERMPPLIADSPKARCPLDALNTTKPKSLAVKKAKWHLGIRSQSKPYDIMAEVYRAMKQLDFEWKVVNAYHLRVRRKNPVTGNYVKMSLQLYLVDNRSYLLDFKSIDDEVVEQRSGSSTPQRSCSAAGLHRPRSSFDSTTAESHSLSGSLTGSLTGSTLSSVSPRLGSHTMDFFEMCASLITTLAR
T1 sequence (Q9Y478 2-270): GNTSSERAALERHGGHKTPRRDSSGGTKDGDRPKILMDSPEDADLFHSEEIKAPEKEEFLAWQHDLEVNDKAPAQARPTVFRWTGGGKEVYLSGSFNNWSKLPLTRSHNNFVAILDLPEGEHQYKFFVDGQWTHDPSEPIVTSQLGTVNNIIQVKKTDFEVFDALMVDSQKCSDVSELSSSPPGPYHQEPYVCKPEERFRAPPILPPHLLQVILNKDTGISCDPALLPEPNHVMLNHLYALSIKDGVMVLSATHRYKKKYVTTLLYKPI
T1 sequence (Q9UGJ0 2-569 partner limits assumed): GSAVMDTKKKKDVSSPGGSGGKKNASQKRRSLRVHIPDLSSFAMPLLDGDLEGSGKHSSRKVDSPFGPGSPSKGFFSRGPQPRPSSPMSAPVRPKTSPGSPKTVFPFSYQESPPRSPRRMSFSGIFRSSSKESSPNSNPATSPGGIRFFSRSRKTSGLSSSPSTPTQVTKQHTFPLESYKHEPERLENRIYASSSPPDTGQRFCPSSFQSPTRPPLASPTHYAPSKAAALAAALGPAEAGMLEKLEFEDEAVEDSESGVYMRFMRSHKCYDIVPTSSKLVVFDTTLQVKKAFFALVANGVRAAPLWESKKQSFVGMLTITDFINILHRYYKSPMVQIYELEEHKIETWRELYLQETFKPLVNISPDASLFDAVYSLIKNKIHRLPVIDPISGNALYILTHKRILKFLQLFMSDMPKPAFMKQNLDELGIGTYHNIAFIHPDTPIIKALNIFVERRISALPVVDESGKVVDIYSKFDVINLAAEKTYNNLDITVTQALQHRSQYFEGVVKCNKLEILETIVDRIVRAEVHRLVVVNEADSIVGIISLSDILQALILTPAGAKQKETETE

| Structure (SMILES) | EC50 | Emax [%] |
| --- | --- | --- |
| Cc1ncc(C(O)=C2C(=O)Nc3cc(Cl)c(-c4ccc(C5(CO)CC5)cc4)cc32)s1 [Compound 75, 6-Chloro-5-[4-(1-hydroxymethyl-cyclopropyl)phenyl]-3-[1-hydroxy-1-(2-methyl-thiazol-5-yl)methylidene]-1,3-dihydro-indol-2-one] | 1 nM | 142 |
| Cc1cc(C(O)=C2C(=O)Nc3cc(Cl)c(-c4ccc(C(O)(CO)CCl)cc4)cc32)on1 (stereo not drawn) [Compound 80, 6-chloro-5-[4-[1-(chloromethyl)-1,2-dihydroxy-ethyl]phenyl]-3-[hydroxy-(3-methylisoxazol-5-yl)methylene]indolin-2-one] | 15 nM | 99 |
| CN(C)c1ccc(-c2cc3c(cc2Cl)NC(=O)C3=C(O)c2ccc(C(=O)O)cc2)cc1 [Compound 9, 4-{[6-Chloro-5-(4-dimethylamino-phenyl)-2-oxo-1,2-dihydro-indolylidene]-hydroxy-methyl}-benzoic acid] | 24 nM and 23 nM | 120 |
| CCc1ccc(-c2cc3c(cc2Cl)NC(=O)C3=C(O)c2cc(C)no2)cc1 [Compound 64, 6-Chloro-5-(4-ethyl-phenyl)-3-[1-hydroxy-1-(3-methyl-isoxazol-5-yl)-methylidene]-1,3-dihydro-indol-2-one] | 1630 nM | 141 |
| Cc1cc(C(O)=C2C(=O)Nc3cc(Cl)c(-c4ccc(OC(F)(F)F)cc4)cc32)on1 [Compound 58, 6-Chloro-3-[1-hydroxy-1-(3-methyl-isoxazol-5-yl)-methylidene]-5-(4-trifluoromethoxy-phenyl)-1,3-dihydro-indol-2-one] | 1400 nM | 212 |
| Cc1cc(C(O)=C2C(=O)Nc3cc(Cl)c(-c4ccc(N5CCOCC5)cc4)cc32)no1 [Compound 28, 6-Chloro-3-[1-hydroxy-1-(5-methyl-isoxazol-3-yl)-methylidene]-5-(4-morpholin-4-yl-phenyl)-1,3-dihydro-indol-2-one] | 130 nM | 150 |
| CN1CCN(c2cccc(C(O)=C3C(=O)Nc4cc(Cl)c(-c5ccc(N6CCOCC6)cc5)cc43)c2)CC1 [Compound 93, 6-chloro-3-[hydroxy-[3-(4-methylpiperazin-1-yl)phenyl]methylene]-5-(4-morpholinophenyl)indolin-2-one hydrochloride] | 58 nM | 186 |
| O=C1Nc2cc(F)c(-c3ccc(C4(CO)CC4)cc3)c(F)c2C1=C(O)c1cc(C2CC2)no1 [Compound 120, 3-[(3-cyclopropylisoxazol-5-yl)hydroxy-methylene]-4,6-difluoro-5-[4-[1-(hydroxymethyl)cyclopropyl]phenyl]indolin-2-one] | 0.2 nM | 169 |
| COc1ccc(C(O)=C2C(=O)Nc3cc(Cl)c(-c4ccc(C5(CO)CC5)cc4)cc32)cc1F [Compound 88, 6-chloro-3-[(3-fluoro-4-methoxy-phenyl)hydroxy-methylene]-5-[4-[1-(hydroxymethyl)cyclopropyl]phenyl]indolin-2-one] | 0.6 nM and 0.4 nM |  |
| COc1cc(C(O)=C2C(=O)Nc3cc(Cl)c(-c4ccc(N5CCOCC5)c(F)c4)cc32)on1 [Compound 149, 6-chloro-5-(3-fluoro-4-morpholino-phenyl)-3-[hydroxy-(3-methoxyisoxazol-5-yl)methylene]indolin-2-one] | 6 nM | 170 |
| COc1cc(C(O)=C2C(=O)Nc3cc(Cl)c(-c4ccc(C5(O)CCOCC5)cc4)cc32)on1 [Compound 89, 6-chloro-3-[hydroxy-(3-methoxyisoxazol-5-yl)methylene]-5-[4-(4-hydroxytetrahydropyran-4-yl)phenyl]indolin-2-one] | 7 nM | 203 |
| Cc1cc(C(O)=C2C(=O)Nc3cc(Cl)c(-c4ccc(OCCCN5CCN(C)CC5)cc4)cc32)on1 [Compound 70, 6-Chloro-3-[1-hydroxy-1-(3-methyl-isoxazol-5-yl)methylidene]-5-{4-[3-(4-methyl-piperazin-1-yl)-propoxy]-phenyl}-1,3-dihydro-indol-2-one, hydrochloride] | 88 nM | 142 |
| COc1ccc(C(O)=C2C(=O)Nc3cc(Cl)c(-c4ccc(N5CCOCC5)cc4)cc32)c(F)c1F [Compound 98, 6-chloro-3-[(2,3-difluoro-4-methoxy-phenyl)hydroxy-methylene]-5-(4-morpholinophenyl)indolin-2-one] | 2 nM | 191 |
| COc1cc(-c2cc3c(cc2Cl)NC(=O)C3=C(O)c2cc(C)no2)ccc1O [Compound 81, 6-chloro-5-(4-hydroxy-3-methoxy-phenyl)-3-[hydroxy-(3-methylisoxazol-5-yl)methylene]indolin-2-one] | 780 nM | 136 |
